# From US6734193B1, “(1,2,3,4-tetrahydroquinolin-8-yl)-heptatrienoic acid derivatives having serum glucose reducing activity” (Allergan, Inc., priority 2003, dated 2004)
# Key:
# [1] = target: T1, RXRα (Homo sapiens, UniProt P19793); experiment: holoreceptor transactivation assay, RXRα; assay type: cell-based; conditions: for EC50: holoreceptor assay, read-out: RXR Trans. EC50 α; for RXR Trans. efficacy α (in parentheses): percentage compared to the standard compound
# T1 construct: expressed in transfected cells
# T1 sequence (P19793 1-462): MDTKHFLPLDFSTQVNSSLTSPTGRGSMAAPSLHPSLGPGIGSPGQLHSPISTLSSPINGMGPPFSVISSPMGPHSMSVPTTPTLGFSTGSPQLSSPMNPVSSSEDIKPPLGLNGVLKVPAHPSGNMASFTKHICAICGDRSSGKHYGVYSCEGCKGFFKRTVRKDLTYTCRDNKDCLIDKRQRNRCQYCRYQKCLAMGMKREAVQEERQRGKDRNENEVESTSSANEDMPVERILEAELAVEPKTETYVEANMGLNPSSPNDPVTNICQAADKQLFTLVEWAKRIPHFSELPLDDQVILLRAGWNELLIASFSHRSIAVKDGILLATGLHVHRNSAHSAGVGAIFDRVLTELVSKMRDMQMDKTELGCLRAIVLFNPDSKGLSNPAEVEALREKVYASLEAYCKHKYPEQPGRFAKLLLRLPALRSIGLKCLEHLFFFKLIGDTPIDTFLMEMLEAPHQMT
# Description: (§1) A holoreceptor transactivation assay and a ligand binding assay which measure the antagonist/agonist like activity of the compounds of the invention, or their ability to bind to the several retinoid receptor subtypes, respectively, are described in published PCT Application No. WO WO093/11755 (particularly on pages 30-33 and 37-41) published on Jun. 24, 1993, the specification of which is also incorporated herein by reference. A detailed experimental procedure for holoreceptor transactivations has been described by Heyman et al. Cell 68, 397-406, (1992); Allegretto et al. J. Biol. Chem. 268, 26625-26633, and Mangelsdorf et al. The Retinoids: Biology, Chemistry and Medicine, pp 319-349, Raven Press Ltd., New York, which are expressly incorporated herein by reference. The results obtained in this assay are expressed in EC50 numbers, as they are also in the chimeric receptor transactivation assay. The results of the ligand binding assay are expressed in Ki numbers. (See Cheng et al Biochemical Pharmacology Vol. 22 pp 3099-3108, expressly incorporated herein by reference.)
# (§2) This standard compound is described in U.S. Pat. No. 6,114,533.
# (§3) Table 1 discloses the activity of certain exemplary compounds of the invention in the above-described receptor transactivation and binding assays. Particularly, the transactivation data pertaining to activation of the RAR receptors were obtained in the chimeric assay, and the transactivation data pertaining to the activation of RXR receptors were obtained in the holoreceptor assay.
# [2] = target: T2, RARα (Homo sapiens, UniProt P10276); experiment: ligand binding assay, RARα; conditions: read-out: RAR Bind. Ki α
# T2 sequence (P10276 1-462): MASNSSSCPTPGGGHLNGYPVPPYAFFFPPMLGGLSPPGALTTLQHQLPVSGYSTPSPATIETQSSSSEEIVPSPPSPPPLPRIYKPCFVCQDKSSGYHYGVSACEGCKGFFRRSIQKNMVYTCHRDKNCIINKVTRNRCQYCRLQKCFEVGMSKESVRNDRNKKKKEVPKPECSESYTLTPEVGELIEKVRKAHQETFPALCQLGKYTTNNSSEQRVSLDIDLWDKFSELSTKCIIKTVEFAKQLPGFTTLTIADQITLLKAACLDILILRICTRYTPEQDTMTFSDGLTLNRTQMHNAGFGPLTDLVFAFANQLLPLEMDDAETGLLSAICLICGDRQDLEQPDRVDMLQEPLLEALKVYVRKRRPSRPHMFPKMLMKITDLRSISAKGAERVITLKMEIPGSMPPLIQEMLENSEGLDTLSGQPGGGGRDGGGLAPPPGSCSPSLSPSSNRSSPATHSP
# Description: as §1
# [3] = target: T3, RXRβ (Homo sapiens, UniProt P28702); experiment: holoreceptor transactivation assay, RXRβ; assay type: cell-based; conditions: for EC50: holoreceptor assay, read-out: RXR Trans. EC50 β; for RXR Trans. efficacy β (in parentheses): percentage compared to the standard compound
# T3 construct: expressed in transfected cells
# T3 sequence (P28702 1-533): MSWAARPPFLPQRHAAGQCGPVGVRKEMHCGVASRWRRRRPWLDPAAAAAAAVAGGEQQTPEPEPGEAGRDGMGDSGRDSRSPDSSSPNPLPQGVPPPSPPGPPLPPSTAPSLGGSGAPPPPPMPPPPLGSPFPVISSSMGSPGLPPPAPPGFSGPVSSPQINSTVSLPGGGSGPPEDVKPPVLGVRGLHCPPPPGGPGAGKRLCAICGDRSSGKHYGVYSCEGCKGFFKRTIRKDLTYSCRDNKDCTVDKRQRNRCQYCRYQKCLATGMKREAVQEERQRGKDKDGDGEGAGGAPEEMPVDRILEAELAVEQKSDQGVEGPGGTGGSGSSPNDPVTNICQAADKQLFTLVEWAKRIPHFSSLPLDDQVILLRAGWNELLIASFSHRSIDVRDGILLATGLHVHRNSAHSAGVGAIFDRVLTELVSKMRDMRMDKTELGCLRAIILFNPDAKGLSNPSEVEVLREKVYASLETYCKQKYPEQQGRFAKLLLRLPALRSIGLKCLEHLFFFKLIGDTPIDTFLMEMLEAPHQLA
# Description: as §1, §2, §3
# [4] = target: T4, RARβ (Homo sapiens, UniProt P10826); experiment: ligand binding assay, RARβ; conditions: read-out: RAR Bind. Ki β
# T4 sequence (P10826 1-455): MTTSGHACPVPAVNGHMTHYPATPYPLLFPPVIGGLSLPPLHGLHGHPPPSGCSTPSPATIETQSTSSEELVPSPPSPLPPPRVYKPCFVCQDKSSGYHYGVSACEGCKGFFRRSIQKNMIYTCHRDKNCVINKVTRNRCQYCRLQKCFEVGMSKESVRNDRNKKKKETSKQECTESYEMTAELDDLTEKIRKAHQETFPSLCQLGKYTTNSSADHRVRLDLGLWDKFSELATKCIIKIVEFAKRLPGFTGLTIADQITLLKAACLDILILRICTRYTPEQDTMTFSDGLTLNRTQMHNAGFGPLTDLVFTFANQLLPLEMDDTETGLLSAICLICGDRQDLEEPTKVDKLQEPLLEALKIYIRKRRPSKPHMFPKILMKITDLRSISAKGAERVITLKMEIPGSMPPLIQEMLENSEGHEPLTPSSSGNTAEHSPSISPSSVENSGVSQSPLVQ
# Description: as §1
# [5] = target: T3, RXRβ; experiment: ligand binding assay, RXRβ; conditions: read-out: RXR Bind Ki β
# Description: as §1
# [6] = target: T1, RXRα; experiment: ligand binding assay, RXRα; conditions: read-out: RXR Bind Ki α
# Description: as §1
# [7] = target: T5, RXRγ (Homo sapiens, UniProt P48443); experiment: holoreceptor transactivation assay, RXRγ; assay type: cell-based; conditions: for EC50: holoreceptor assay, read-out: RXR Trans. EC50 γ; for RXR Trans. efficacy γ (in parentheses): percentage compared to the standard compound
# T5 construct: expressed in transfected cells
# T5 sequence (P48443 1-463): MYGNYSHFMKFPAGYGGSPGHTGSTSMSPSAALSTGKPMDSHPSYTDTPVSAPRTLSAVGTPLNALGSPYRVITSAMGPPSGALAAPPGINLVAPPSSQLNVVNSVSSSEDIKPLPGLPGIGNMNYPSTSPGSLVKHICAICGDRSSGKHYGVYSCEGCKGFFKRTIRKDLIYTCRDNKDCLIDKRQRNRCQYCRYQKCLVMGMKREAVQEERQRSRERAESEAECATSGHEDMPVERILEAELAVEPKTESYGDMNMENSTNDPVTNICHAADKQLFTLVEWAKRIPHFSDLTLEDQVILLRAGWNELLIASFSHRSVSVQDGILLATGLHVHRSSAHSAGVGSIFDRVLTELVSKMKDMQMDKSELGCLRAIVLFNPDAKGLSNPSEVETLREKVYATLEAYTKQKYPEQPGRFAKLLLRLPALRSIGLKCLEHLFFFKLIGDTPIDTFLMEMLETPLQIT
# Description: as §1, §2, §3
# [8] = target: T6, RARγ (Homo sapiens, UniProt P13631); experiment: ligand binding assay, RARγ; conditions: read-out: RAR Bind. Ki γ
# T6 sequence (P13631 1-454): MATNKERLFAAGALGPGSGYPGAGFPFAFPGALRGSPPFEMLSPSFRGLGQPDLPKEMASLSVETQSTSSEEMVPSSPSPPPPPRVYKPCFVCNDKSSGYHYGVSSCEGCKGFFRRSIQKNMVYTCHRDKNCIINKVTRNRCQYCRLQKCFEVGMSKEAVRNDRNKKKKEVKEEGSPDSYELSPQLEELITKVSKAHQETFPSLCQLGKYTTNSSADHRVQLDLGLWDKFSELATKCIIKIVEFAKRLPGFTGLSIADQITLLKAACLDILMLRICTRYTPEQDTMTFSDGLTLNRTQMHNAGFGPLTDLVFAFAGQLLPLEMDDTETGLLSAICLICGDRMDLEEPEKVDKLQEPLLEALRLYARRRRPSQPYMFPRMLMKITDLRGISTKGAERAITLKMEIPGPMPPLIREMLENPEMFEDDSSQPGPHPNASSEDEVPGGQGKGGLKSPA
# Description: as §1
# [9] = target: T5, RXRγ; experiment: ligand binding assay, RXRγ; conditions: read-out: RXR Bind Ki γ
# Description: as §1
# [10] = tested on: female diabetic db/db mice; experiment: serum glucose, triglyceride and thyroxine levels in db/db mice; conditions: for Glucosc Day 0 / Triglycerides Day 0: Day 0 (pre-treatment)
# Description: An assay described below tests the effect of compounds of the invention on serum glucose, tryglyceride and thyroxine levels in female 9-10 weeks old db/db mice.
# Female diabetic db/db (9-10 weeks old) mice were maintained on standard laboratory food and treated by oral gavage with vehicle (corn oil), standard compound (2E,4E,1′S,2′S)-3-methyl-5-[2′-methyl-2′-(5,5,8,8-tetramethyl-5,6,7,8-tetrahydro-naphthalen-2-yl)-cyclopropyl]-penta-2,4-dienoic acid (5 mg/kg) or the test compound (5-100 mg/kg, as described in Table 2) daily for seven days at 8:00 AM. Blood samples (70 μl) were taken by orbital bleeding at 11:00 AM on day 0 (pre-treatment), day 3, and day 6. On day 7, a blood sample (700 μl) was taken at 11:00 AM and the animals were sacrificed. Glucose, triglyceride and thyroxine (T4) levels were determined on a Boehringer Manheim Hatachi Clinical Chemistry Analyzer using standard protocols provided by the manufacturer and reagents that were supplied in commercially available kits (glucose and T4: Boehringer Manheim; triglycerides: Roche Diagnostics). A NUMBER OF animals were treated in each group.
Compound,EC50 [1] [nM],RXR Trans. efficacy α (in parentheses) [1] [%],Ki [2] [nM],EC50 [3] [nM],RXR Trans. efficacy β (in parentheses) [3] [%],Ki [4] [nM],Ki [5] [nM],Ki [6] [nM],EC50 [7] [nM],RXR Trans. efficacy γ (in parentheses) [7] [%],Ki [8] [nM],other results
"CCN1CCC(C)(C)c2cc(C(C)C)cc(\C(C)=C(F)/C=C/C(C)=C/C(=O)O)c21 [Compound 27, (2E,4E,6E)-7-(1-Ethyl-6-isopropyl-4,4-dimethyl-1,2,3,4-tetrahydro-quinolin-8-yl)-6-fluoro-3-methyl-octa-2,4,6-trienoic acid]",0.1,74,680,0.5,77,840,11,1,0.1,75,2500,–
"CC/C(=C(F)/C=C/C(C)=C/C(=O)O)c1cc(C(C)C)cc2c1N(CC)CCC2(C)C [Compound 28, (2E,4E,6E)-7-(1-Ethyl-6-isopropyl-4,4-dimethyl-1,2,3,4-tetrahydro-quinolin-8-yl)-6-fluoro-3-methyl-nona-2,4,6-trienoic acid]",0.3,86,705,0.4,66,430,21,2,0.3,75,2000,Ki [9]: 21 nM
"CCCN1CCC(C)(C)c2cc(C(C)C)cc(\C(C)=C(F)/C=C/C(C)=C/C(=O)O)c21 [Compound 29, (2E,4E,6E)-6-Fluoro-7-(6-isopropyl-4,4-dimethyl-1-propyl-1,2,3,4-tetrahydro-quinolin-8-yl)-3-methyl-octa-2,4,6-trienoic acid]",2,32,480,6,27,450,15,1,2,10,1400,"Glucosc Day 0 ([10]; 50 mg/kg oral gavage daily): 523 ± 84 mg/dL; Triglycerides Day 0 ([10]; 50 mg/kg oral gavage daily): 316 ± 339 mg/dL; Glucosc Day 3, 3h ([10]; 50 mg/kg oral gavage daily): 476 ± 96 mg/dL; Triglycerides Day 3, 3h ([10]; 50 mg/kg oral gavage daily): 326 ± 111 mg/dL; Glucosc Day 6, 3h ([10]; 50 mg/kg oral gavage daily): 441 ± 184 mg/dL"
"CC(/C=C/[C@@H]1C[C@]1(C)c1ccc2c(c1)C(C)(C)CCC2(C)C)=C\C(=O)O [Standard compound, (2E,4E,1′S,2′S)-3-methyl-5-[2′-methyl-2′-(5,5,8,8-tetramethyl-5,6,7,8-tetrahydro-naphthalen-2-yl)-cyclopropyl]-penta-2,4-dienoic acid]",–,–,–,–,–,–,–,–,–,–,–,"Glucosc Day 0 ([10]; 4 mg/kg oral gavage daily): 524 ± 45 mg/dL; Triglycerides Day 0 ([10]; 4 mg/kg oral gavage daily): 273 ± 66 mg/dL; Glucosc Day 3, 3h ([10]; 4 mg/kg oral gavage daily): 512 ± 156 mg/dL; Triglycerides Day 3, 3h ([10]; 4 mg/kg oral gavage daily): 755 ± 464 mg/dL; Glucosc Day 6, 3h ([10]; 4 mg/kg oral gavage daily): 459 ± 148 mg/dL; T4 Day 7 ([10]; 4 mg/kg oral gavage daily, Day 7): 1.4 ± 0.5 µg/dL"
